According to the supplement of paper PMC11451515:

Key:
Conditions in all cases: 48 h
SEM cells [1] = test: AUC of viability dose-response curve (% viability x log10 dose units); higher = less sensitive
Procedure, shortened: (§1)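 Over 48 h at 37°C, leukemia cells in 1536-well plates (500 or 1000 cells/well), adapted to each medium, received library compounds in DMSO at 11 threefold doses from 47 μM to 0.79 nM. CellTiter-Glo One luminescence, normalised per plate to DMSO and cell-free wells, was fitted by a four-parameter log-logistic function of log10 dose. The area under the curve was then integrated by trapezoidal rule, after scaling curves above full viability and removing those that failed quality control.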

NOMO1 [2] = test: as above
Procedure, shortened: as §1

P12-Ichikawa [3] = test: as above
Procedure, shortened: as §1

SEM cells [4] = test: cell viability relative to DMSO control; higher = less cytotoxic
Procedure, shortened: (§2)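 Leukemia cells (NOMO1 or SEM, 500 cells/well; P12-Ichikawa, 1000 cells/well) were seeded in 5 μl in 1536-well plates after at least four passages of adaptation to each medium. They received library compounds in DMSO by pin dosing, 11 threefold points from 47 μM to 0.79 nM. Luminescence with CellTiter-Glo One was read after 48 h at 37°C. Viability is stated per plate relative to DMSO wells, with cell-free wells as background.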

NOMO1 [5] = test: as above
Procedure, shortened: as §2

P12-Ichikawa [6] = test: as above
Procedure, shortened: as §2

CN1C(=O)C(=C/2N(C(=O)N(C3CC3)C(=O)C2=C1/NC4=CC=C(I)C=C4F)C5=CC=CC(=C5)NC(C)=O)\C
AUC of viability dose-response curve
Conditions	NOMO1 [2]	P12-Ichikawa [3]	SEM cells [1]
HPLM + 10% dialyzed FBS	249	354	325
RPMI 5 mM glucose + 10% FBS	255	340	323
RPMI 5 mM glucose + 10% dialyzed FBS	255	355	318

Conditions	cell viability [%]
NOMO1 [5], HPLM + 10% dialyzed FBS, 0.000781 µM	117
NOMO1 [5], HPLM + 10% dialyzed FBS, 0.00234 µM	134
NOMO1 [5], HPLM + 10% dialyzed FBS, 0.00702 µM	113
NOMO1 [5], HPLM + 10% dialyzed FBS, 0.0211 µM	99.3
NOMO1 [5], HPLM + 10% dialyzed FBS, 0.0632 µM	83.4
NOMO1 [5], HPLM + 10% dialyzed FBS, 0.19 µM	61.1
NOMO1 [5], HPLM + 10% dialyzed FBS, 0.569 µM	52.3
NOMO1 [5], HPLM + 10% dialyzed FBS, 1.71 µM	41.1
NOMO1 [5], HPLM + 10% dialyzed FBS, 5.12 µM	10.8
NOMO1 [5], HPLM + 10% dialyzed FBS, 15.4 µM	7.05
NOMO1 [5], HPLM + 10% dialyzed FBS, 46.1 µM	6.86
NOMO1 [5], RPMI 5 mM glucose + 10% dialyzed FBS, 0.000781 µM	117
NOMO1 [5], RPMI 5 mM glucose + 10% dialyzed FBS, 0.00234 µM	135
NOMO1 [5], RPMI 5 mM glucose + 10% dialyzed FBS, 0.00702 µM	124
NOMO1 [5], RPMI 5 mM glucose + 10% dialyzed FBS, 0.0211 µM	92.7
NOMO1 [5], RPMI 5 mM glucose + 10% dialyzed FBS, 0.0632 µM	81
NOMO1 [5], RPMI 5 mM glucose + 10% dialyzed FBS, 0.19 µM	63.8
NOMO1 [5], RPMI 5 mM glucose + 10% dialyzed FBS, 0.569 µM	55.1
NOMO1 [5], RPMI 5 mM glucose + 10% dialyzed FBS, 1.71 µM	49.6
NOMO1 [5], RPMI 5 mM glucose + 10% dialyzed FBS, 5.12 µM	27.6
NOMO1 [5], RPMI 5 mM glucose + 10% dialyzed FBS, 15.4 µM	9.59
NOMO1 [5], RPMI 5 mM glucose + 10% dialyzed FBS, 46.1 µM	6.9
P12-Ichikawa [6], HPLM + 10% dialyzed FBS, 0.000781 µM	121
P12-Ichikawa [6], HPLM + 10% dialyzed FBS, 0.00234 µM	130
P12-Ichikawa [6], HPLM + 10% dialyzed FBS, 0.00702 µM	122
P12-Ichikawa [6], HPLM + 10% dialyzed FBS, 0.0211 µM	123
P12-Ichikawa [6], HPLM + 10% dialyzed FBS, 0.0632 µM	113
P12-Ichikawa [6], HPLM + 10% dialyzed FBS, 0.19 µM	112
P12-Ichikawa [6], HPLM + 10% dialyzed FBS, 0.569 µM	101
P12-Ichikawa [6], HPLM + 10% dialyzed FBS, 1.71 µM	90.9
P12-Ichikawa [6], HPLM + 10% dialyzed FBS, 5.12 µM	12.8
P12-Ichikawa [6], HPLM + 10% dialyzed FBS, 15.4 µM	4.68
P12-Ichikawa [6], HPLM + 10% dialyzed FBS, 46.1 µM	4.28
SEM cells [4], RPMI 5 mM glucose + 10% FBS, 0.000781 µM	107
SEM cells [4], RPMI 5 mM glucose + 10% FBS, 0.00234 µM	129
SEM cells [4], RPMI 5 mM glucose + 10% FBS, 0.00702 µM	118
SEM cells [4], RPMI 5 mM glucose + 10% FBS, 0.0211 µM	129
SEM cells [4], RPMI 5 mM glucose + 10% FBS, 0.0632 µM	136
SEM cells [4], RPMI 5 mM glucose + 10% FBS, 0.19 µM	114
SEM cells [4], RPMI 5 mM glucose + 10% FBS, 0.569 µM	85.6
SEM cells [4], RPMI 5 mM glucose + 10% FBS, 1.71 µM	60.1
SEM cells [4], RPMI 5 mM glucose + 10% FBS, 5.12 µM	7.99
SEM cells [4], RPMI 5 mM glucose + 10% FBS, 15.4 µM	4.7
SEM cells [4], RPMI 5 mM glucose + 10% FBS, 46.1 µM	4.99

CC[P](CC)(CC)=[Au][S][C@@H]1O[C@H](COC(C)=O)[C@@H](OC(C)=O)[C@H](OC(C)=O)[C@H]1OC(C)=O
AUC of viability dose-response curve
Conditions	NOMO1 [2]	P12-Ichikawa [3]	SEM cells [1]
HPLM + 10% dialyzed FBS	357	375	327
RPMI 5 mM glucose + 10% FBS	344	339	336
RPMI 5 mM glucose + 10% dialyzed FBS	354	331	315

cell viability [%]
Conditions	NOMO1 [5]	P12-Ichikawa [6]	SEM cells [4]
HPLM + 10% dialyzed FBS, 0.000781 µM	118	122	–
HPLM + 10% dialyzed FBS, 0.00234 µM	121	108	–
HPLM + 10% dialyzed FBS, 0.00702 µM	119	116	–
HPLM + 10% dialyzed FBS, 0.0211 µM	109	109	–
HPLM + 10% dialyzed FBS, 0.0632 µM	120	115	–
HPLM + 10% dialyzed FBS, 0.19 µM	105	105	–
HPLM + 10% dialyzed FBS, 0.569 µM	115	110	–
HPLM + 10% dialyzed FBS, 1.71 µM	55.6	77.2	–
HPLM + 10% dialyzed FBS, 5.12 µM	9.31	23	–
HPLM + 10% dialyzed FBS, 15.4 µM	3.26	2.24	–
HPLM + 10% dialyzed FBS, 46.1 µM	2.08	1.8	–
RPMI 5 mM glucose + 10% FBS, 0.000781 µM	99.7	104	106
RPMI 5 mM glucose + 10% FBS, 0.00234 µM	115	119	120
RPMI 5 mM glucose + 10% FBS, 0.00702 µM	105	112	117
RPMI 5 mM glucose + 10% FBS, 0.0211 µM	109	123	122
RPMI 5 mM glucose + 10% FBS, 0.0632 µM	116	115	115
RPMI 5 mM glucose + 10% FBS, 0.19 µM	87	103	108
RPMI 5 mM glucose + 10% FBS, 0.569 µM	90.4	109	89.8
RPMI 5 mM glucose + 10% FBS, 1.71 µM	26.9	9.37	5.13
RPMI 5 mM glucose + 10% FBS, 5.12 µM	6.9	2.79	4.94
RPMI 5 mM glucose + 10% FBS, 15.4 µM	2.16	2.08	3.95
RPMI 5 mM glucose + 10% FBS, 46.1 µM	1.83	1.61	3.2
RPMI 5 mM glucose + 10% dialyzed FBS, 0.000781 µM	95	117	111
RPMI 5 mM glucose + 10% dialyzed FBS, 0.00234 µM	125	111	106
RPMI 5 mM glucose + 10% dialyzed FBS, 0.00702 µM	111	117	93.8
RPMI 5 mM glucose + 10% dialyzed FBS, 0.0211 µM	125	117	108
RPMI 5 mM glucose + 10% dialyzed FBS, 0.0632 µM	102	114	106
RPMI 5 mM glucose + 10% dialyzed FBS, 0.19 µM	114	105	113
RPMI 5 mM glucose + 10% dialyzed FBS, 0.569 µM	108	96.3	103
RPMI 5 mM glucose + 10% dialyzed FBS, 1.71 µM	48.9	3.62	5.2
RPMI 5 mM glucose + 10% dialyzed FBS, 5.12 µM	11.6	2.8	5.93
RPMI 5 mM glucose + 10% dialyzed FBS, 15.4 µM	3.14	–	4.45
RPMI 5 mM glucose + 10% dialyzed FBS, 46.1 µM	1.73	1.1	2.9

CC[C@@H](C)[C@H](NC(=O)[C@H](CC1CCCCC1)NC(=O)c1ccno1)C(=O)N1CCC2(CCc3ccccc32)CC1
AUC of viability dose-response curve
Conditions	NOMO1 [2]	P12-Ichikawa [3]	SEM cells [1]
HPLM + 10% dialyzed FBS	399	418	382
RPMI 5 mM glucose + 10% FBS	385	394	381
RPMI 5 mM glucose + 10% dialyzed FBS	385	388	449

cell viability [%]
Conditions	NOMO1 [5]	P12-Ichikawa [6]	SEM cells [4]
HPLM + 10% dialyzed FBS, 0.000781 µM	85.9	94	41.9
HPLM + 10% dialyzed FBS, 0.00234 µM	90.6	89.4	88.3
HPLM + 10% dialyzed FBS, 0.00702 µM	86.1	92.7	78.3
HPLM + 10% dialyzed FBS, 0.0211 µM	78.9	88.9	86
HPLM + 10% dialyzed FBS, 0.0632 µM	108	95	65.4
HPLM + 10% dialyzed FBS, 0.19 µM	97.3	94.1	86.3
HPLM + 10% dialyzed FBS, 0.569 µM	75.9	75.8	83.7
HPLM + 10% dialyzed FBS, 1.71 µM	66.1	80.8	87.1
HPLM + 10% dialyzed FBS, 5.12 µM	79.2	89.2	93.1
HPLM + 10% dialyzed FBS, 15.4 µM	81.7	78.9	82.6
HPLM + 10% dialyzed FBS, 46.1 µM	69.9	83.3	70.3
RPMI 5 mM glucose + 10% FBS, 0.000781 µM	80.1	79	49.4
RPMI 5 mM glucose + 10% FBS, 0.00234 µM	88.6	81.5	102
RPMI 5 mM glucose + 10% FBS, 0.00702 µM	81.1	101	103
RPMI 5 mM glucose + 10% FBS, 0.0211 µM	79.9	88.7	89.2
RPMI 5 mM glucose + 10% FBS, 0.0632 µM	77.1	89.8	67.5
RPMI 5 mM glucose + 10% FBS, 0.19 µM	78.3	85.9	71.5
RPMI 5 mM glucose + 10% FBS, 0.569 µM	89.1	64.5	88
RPMI 5 mM glucose + 10% FBS, 1.71 µM	81.9	71.9	73.7
RPMI 5 mM glucose + 10% FBS, 5.12 µM	84.6	99.8	79.3
RPMI 5 mM glucose + 10% FBS, 15.4 µM	74.4	70.1	73.8
RPMI 5 mM glucose + 10% FBS, 46.1 µM	72.2	74.6	81.3
RPMI 5 mM glucose + 10% dialyzed FBS, 0.000781 µM	84	84.3	55.4
RPMI 5 mM glucose + 10% dialyzed FBS, 0.00234 µM	85.4	89.3	111
RPMI 5 mM glucose + 10% dialyzed FBS, 0.00702 µM	84	83.2	99.2
RPMI 5 mM glucose + 10% dialyzed FBS, 0.0211 µM	77.9	81.4	105
RPMI 5 mM glucose + 10% dialyzed FBS, 0.0632 µM	87.6	77.1	83.6
RPMI 5 mM glucose + 10% dialyzed FBS, 0.19 µM	82.4	82.2	99.1
RPMI 5 mM glucose + 10% dialyzed FBS, 0.569 µM	76.2	79.6	82.1
RPMI 5 mM glucose + 10% dialyzed FBS, 1.71 µM	69.8	82	99.1
RPMI 5 mM glucose + 10% dialyzed FBS, 5.12 µM	82.6	84.6	95.6
RPMI 5 mM glucose + 10% dialyzed FBS, 15.4 µM	73.7	76	93.9
RPMI 5 mM glucose + 10% dialyzed FBS, 46.1 µM	83.2	77	91.9
